Experimental data: ChEMBL document CHEMBL1201862, “PubChem BioAssay data set” (2004)
Calls of active or inactive are those of the source.

Assays:
[1] = Counterscreen for AddAB inhibitors: absorbance-based bacterial cell-based high throughput dose response assay for inhibitors of bacterial viability. [Related pubchem assays (depositor defined):AID435030, AID449728, AID449731, AID488942, AID488955, AID488956]; type: functional
Exodeoxyribonuclease V = target: T1, Exodeoxyribonuclease V (Escherichia coli (strain K12), UniProt P04993+P07648+P08394); test: RecBCD inhibition via phage-restricted bacterial growth – absorbance, V66 E. coli, mutant T4 phage, counter-screen for AddAB inhibitor project, dose response (AID 492957); type: functional, cell-based, Escherichia coli str. K-12 substr. MG1655
T1 sequence (P04993 whole entry): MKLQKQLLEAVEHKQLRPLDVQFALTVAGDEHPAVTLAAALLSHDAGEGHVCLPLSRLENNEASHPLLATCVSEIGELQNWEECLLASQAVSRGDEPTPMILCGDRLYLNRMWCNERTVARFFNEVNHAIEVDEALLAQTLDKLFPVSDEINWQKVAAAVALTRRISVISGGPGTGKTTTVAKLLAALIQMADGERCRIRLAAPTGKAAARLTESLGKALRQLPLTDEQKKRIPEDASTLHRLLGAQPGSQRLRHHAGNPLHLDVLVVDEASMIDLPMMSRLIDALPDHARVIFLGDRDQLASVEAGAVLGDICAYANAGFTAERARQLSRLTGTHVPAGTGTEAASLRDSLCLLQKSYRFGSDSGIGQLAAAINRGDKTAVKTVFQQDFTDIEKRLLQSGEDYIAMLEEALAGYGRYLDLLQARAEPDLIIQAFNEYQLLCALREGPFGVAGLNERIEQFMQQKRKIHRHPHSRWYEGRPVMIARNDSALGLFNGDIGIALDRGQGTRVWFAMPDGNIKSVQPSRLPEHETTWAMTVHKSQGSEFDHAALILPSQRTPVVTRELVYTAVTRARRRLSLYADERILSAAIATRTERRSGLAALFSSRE
T1 sequence (P07648 whole entry): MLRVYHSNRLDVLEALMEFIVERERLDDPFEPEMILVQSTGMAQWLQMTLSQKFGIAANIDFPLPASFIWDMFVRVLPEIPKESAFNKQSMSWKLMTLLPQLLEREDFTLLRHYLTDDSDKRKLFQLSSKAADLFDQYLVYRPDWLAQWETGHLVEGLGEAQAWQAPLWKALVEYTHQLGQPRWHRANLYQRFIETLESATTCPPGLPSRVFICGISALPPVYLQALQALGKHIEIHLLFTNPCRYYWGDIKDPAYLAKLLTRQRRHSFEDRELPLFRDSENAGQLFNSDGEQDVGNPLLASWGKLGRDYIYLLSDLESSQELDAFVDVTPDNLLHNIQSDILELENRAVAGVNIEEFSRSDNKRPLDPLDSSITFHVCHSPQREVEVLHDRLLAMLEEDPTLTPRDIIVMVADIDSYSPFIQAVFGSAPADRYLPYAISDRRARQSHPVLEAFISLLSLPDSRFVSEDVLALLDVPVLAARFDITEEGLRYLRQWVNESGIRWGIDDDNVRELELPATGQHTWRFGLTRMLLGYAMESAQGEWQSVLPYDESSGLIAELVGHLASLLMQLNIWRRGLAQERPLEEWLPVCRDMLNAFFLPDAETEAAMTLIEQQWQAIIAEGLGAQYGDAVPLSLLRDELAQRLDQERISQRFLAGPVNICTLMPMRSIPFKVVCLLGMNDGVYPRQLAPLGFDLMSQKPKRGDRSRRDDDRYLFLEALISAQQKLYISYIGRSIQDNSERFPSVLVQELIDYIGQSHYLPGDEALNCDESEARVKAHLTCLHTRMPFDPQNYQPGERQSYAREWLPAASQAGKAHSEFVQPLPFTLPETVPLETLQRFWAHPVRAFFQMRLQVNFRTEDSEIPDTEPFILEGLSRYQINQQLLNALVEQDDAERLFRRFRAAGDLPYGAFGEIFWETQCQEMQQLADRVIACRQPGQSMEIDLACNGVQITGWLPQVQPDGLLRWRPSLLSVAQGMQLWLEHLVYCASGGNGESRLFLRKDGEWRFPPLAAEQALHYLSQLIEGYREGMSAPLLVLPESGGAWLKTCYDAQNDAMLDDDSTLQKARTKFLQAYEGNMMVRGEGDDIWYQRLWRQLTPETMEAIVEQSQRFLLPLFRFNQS
T1 sequence (P08394 whole entry): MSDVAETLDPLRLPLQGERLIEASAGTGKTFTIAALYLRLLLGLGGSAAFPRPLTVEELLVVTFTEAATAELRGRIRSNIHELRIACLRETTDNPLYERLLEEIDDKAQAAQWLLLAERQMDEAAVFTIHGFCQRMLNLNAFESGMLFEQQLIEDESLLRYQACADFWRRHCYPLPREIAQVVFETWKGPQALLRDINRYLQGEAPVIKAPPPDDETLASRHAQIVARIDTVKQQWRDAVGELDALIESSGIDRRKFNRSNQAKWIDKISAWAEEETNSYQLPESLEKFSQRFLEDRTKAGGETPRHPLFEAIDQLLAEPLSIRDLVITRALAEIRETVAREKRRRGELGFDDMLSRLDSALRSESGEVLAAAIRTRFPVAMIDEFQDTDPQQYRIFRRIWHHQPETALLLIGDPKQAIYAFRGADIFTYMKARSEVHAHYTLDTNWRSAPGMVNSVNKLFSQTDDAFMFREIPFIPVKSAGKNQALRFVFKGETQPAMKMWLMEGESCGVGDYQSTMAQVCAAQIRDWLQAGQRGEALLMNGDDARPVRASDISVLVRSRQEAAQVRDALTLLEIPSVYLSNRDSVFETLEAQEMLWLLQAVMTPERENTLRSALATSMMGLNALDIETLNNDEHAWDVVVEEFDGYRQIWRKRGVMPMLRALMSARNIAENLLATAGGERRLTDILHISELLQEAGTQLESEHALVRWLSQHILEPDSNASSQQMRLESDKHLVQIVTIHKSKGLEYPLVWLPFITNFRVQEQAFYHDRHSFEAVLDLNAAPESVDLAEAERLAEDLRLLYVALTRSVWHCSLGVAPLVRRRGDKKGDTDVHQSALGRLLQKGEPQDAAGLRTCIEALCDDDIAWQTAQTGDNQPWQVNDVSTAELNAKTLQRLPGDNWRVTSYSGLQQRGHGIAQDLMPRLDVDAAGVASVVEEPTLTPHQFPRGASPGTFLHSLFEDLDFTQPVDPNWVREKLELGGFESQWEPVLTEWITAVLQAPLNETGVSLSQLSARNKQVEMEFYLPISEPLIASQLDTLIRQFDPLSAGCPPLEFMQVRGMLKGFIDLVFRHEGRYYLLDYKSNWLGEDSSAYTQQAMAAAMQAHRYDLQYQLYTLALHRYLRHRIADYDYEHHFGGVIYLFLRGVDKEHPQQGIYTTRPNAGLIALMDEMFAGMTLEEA

BJ [2] = test: BJ-TERT fibroblast viability loss – cell-based, RAS-independent, luminescence, dose response (AID 1933); type: functional; conditions: Homo sapiens
[3] = DRD fibroblast viability loss – cell-based, non-viral oncogenic, luminescence, dose response (AID 1934); type: functional; conditions: Homo sapiens
[4] = viability loss of HMLE_sh_eGFP cells – cell-based, luminescence, counter-screen for HMLE_sh_ECad selective toxicity project, dose response (AID 463074); type: functional, Homo sapiens;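 also: HMLE human mammary epithelial cells expressing control shRNA against eGFP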
BJ [5] = test: BJ-TERT-LT-ST fibroblast viability loss – cell-based, RAS-independent, luminescence, dose response (AID 1935); type: functional; conditions: Homo sapiens;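 also: BJ fibroblasts immortalized with TERT plus LT and ST oncogenes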
[6] = Luminescence Cell-Based Dose Retest to Confirm Inhibitors of Cancer Stem Cells. [Related pubchem assays (depositor defined):AID2717, AID2721]; type: functional; conditions: Homo sapiens
BJ [7] = test: cells; type: functional, cell-based; conditions: Homo sapiens
[8] = target: T2, Endoribonuclease toxin MazF (Escherichia coli K-12, UniProt P0AE70); test: substrate-only fluorescence increase artefacts – biochemical, single-stranded RNase substrate, counter-screen for MazEF activator project, dose response (AID 588502); type: functional
T2 sequence (P0AE70 whole entry): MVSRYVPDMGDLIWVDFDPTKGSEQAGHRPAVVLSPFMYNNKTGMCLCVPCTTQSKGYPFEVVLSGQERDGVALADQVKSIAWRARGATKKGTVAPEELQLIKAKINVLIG

[9] = target: T2, Endoribonuclease toxin MazF; test: activation of MazEF endoribonuclease cleavage – biochemical, fluorescence, single-stranded RNA substrate, uHTS hits, dose response (AID 588481); type: functional
INS1 = test: INS-1E survival protection against cytokine death – cell-based, luminescence, retest, dose response (AID 449756); type: functional; conditions: Rattus norvegicus;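 also: cell death triggered by IL-1 beta plus TNF-alpha plus IFN-gamma mixture; protective hits raise ATP signal compared with cytokine alone wells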
[10] = test system: Streptococcus sp. 'group A'; test: Streptococcus pyogenes SK(-)GAS viability under kanamycin – luminescence, BacTiterGlo, confirmation, counter-screen for streptokinase expression inhibitor project, dose response (AID 1900); type: functional, organism-based
Streptococcus = test: GAS UMAA2166 growth inhibition – luminescence, BacTiterGlo, counter-screen for streptokinase expression inhibitor project, dose response (AID 1915); type: functional, organism-based;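 also: potency for reduction of bacterial viability or growth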
Streptokinase A = target: T3, Streptokinase A (Streptococcus pyogenes serotype M1, UniProt P10520); test: viability-normalized secreted streptokinase activity reduction – plasminogen activation absorbance, OD405, dose response (AID 1914); type: functional, Streptococcus pyogenes M1 GAS;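 also: secreted streptokinase activity via plasminogen activation per viability signal from cell pellet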
T3 sequence (P10520 whole entry): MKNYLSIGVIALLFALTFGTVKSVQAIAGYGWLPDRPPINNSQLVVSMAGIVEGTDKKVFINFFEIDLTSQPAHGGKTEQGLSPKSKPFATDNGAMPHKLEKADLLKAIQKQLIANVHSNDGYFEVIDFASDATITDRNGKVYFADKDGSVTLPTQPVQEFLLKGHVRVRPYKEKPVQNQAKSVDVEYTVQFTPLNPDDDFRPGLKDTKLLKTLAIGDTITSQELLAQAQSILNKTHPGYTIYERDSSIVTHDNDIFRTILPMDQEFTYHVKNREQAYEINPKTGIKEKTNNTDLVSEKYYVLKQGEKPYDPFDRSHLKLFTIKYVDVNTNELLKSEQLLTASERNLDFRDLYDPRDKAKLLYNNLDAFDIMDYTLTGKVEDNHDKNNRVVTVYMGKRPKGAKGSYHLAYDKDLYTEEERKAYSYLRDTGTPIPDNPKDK

[11] = viability loss in HeLa cells – cytotoxicity control for MgcRacGAP inhibitor project, dose response (AID 624300); type: functional

## Cc1cc(N/N=C/c2ccc([N+](=O)[O-])o2)nc2ccccc12
[1]
  IC50: > 118 µM (inactive)
Exodeoxyribonuclease V
  IC50: > 118 µM (inactive)

## Cc1cccc(NC(=S)N/N=C/c2cccc(O)c2)c1C
BJ [2]
  EC50: 11.3 µM (active)
[3]
  EC50: 2.75 µM (active)
[4]
  AC50: 33.7 µM (active)
BJ [5]
  EC50: 2.91 µM (active)
[6]
  AC50: 1.15 µM (active)
BJ [7]
  EC50: 26 µM (inconclusive)

## O=[N+]([O-])c1ccc2[nH]c(O)c(N=Nc3ccc(F)cc3)c2c1
[8]
  EC50: 20.3 µM (inactive)
[9]
  EC50: > 99 µM (inactive)

## C=CCc1cccc(/C=N/NC(=O)CCC(=O)Nc2ccc(F)cc2)c1O
[1]
  IC50: > 119 µM (inactive)
Exodeoxyribonuclease V
  IC50: > 119 µM (inactive)
INS1
  AC50: 3.18 µM (active)

## O=C(NC(NC(=S)Nc1ccc(Cl)c(Cl)c1)C(Cl)(Cl)Cl)c1ccco1 (stereo unspecified)
[10]
  EC50: 4.32 µM (active)
Streptococcus
  EC50: 10.9 µM (active)
[1]
  IC50: > 119 µM (inactive)
Streptokinase A
  EC50: 10.9 µM (active)
Exodeoxyribonuclease V
  IC50: > 119 µM (inactive)
[11]
  CC50: 57.7 µM (active)

## Cc1ccc(N/N=C(\Cc2nc3ccccc3[nH]2)c2ccccc2)cc1
[4]
  AC50: 0.385 µM (inconclusive)
[6]
  AC50: 0.47 µM (active)
